Experimental data published in patent publication US10004732B2 (Novartis AG, priority 2014, dated 2018).

Key:
[1] = biological target: T1, PI 3-kinase beta (Homo sapiens, UniProt P42338); test: Kinase Glo Luminescent Kinase Assay (Kglo), assay B; format: biochemical; conditions: read-out: Assay B PI3Kβ IC50
[2] = biological target: T2, PI 3-kinase gamma (Homo sapiens, UniProt P48736); test: Cellular U937 AKT assay K1 (MSD); format: cell-based; conditions: U937 cells, K1 format; read-out: Assay K1 PI3Kγ IC50
T2 sequence (P48736 whole entry): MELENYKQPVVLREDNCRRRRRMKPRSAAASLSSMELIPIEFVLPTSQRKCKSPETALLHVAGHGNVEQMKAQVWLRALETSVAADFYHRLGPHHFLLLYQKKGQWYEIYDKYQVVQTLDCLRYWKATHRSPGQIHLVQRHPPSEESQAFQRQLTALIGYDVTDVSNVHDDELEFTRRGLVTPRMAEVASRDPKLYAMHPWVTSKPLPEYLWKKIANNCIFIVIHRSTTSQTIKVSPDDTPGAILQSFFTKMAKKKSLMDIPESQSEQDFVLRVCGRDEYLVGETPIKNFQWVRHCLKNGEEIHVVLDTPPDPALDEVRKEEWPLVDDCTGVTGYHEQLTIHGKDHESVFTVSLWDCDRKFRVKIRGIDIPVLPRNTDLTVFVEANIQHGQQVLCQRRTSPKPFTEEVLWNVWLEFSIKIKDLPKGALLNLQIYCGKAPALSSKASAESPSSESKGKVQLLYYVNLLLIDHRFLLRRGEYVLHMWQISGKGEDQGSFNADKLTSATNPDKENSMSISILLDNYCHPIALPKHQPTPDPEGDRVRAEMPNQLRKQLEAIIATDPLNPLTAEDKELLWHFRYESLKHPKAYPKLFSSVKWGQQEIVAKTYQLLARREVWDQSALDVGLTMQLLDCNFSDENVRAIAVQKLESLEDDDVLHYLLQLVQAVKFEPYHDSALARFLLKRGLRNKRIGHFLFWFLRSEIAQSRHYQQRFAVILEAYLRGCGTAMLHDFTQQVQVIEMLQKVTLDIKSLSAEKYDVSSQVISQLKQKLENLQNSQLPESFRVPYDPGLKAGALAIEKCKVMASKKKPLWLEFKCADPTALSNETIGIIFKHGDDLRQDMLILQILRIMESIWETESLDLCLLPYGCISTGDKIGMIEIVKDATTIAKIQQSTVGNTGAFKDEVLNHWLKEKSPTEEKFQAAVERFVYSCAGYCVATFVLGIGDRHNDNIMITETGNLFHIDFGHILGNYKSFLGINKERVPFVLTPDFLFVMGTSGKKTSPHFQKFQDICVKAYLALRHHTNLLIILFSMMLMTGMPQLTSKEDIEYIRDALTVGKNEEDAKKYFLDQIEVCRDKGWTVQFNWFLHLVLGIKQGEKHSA

[3] = biological target: PI 4-kinase beta (Homo sapiens, UniProt Q9UBF8); test: Kinase Glo Luminescent Kinase Assay (Kglo), assay D; format: biochemical; conditions: read-out: Assay D PI4Kβ IC50
Chain of PI 4-kinase beta (Q9UBF8 whole entry): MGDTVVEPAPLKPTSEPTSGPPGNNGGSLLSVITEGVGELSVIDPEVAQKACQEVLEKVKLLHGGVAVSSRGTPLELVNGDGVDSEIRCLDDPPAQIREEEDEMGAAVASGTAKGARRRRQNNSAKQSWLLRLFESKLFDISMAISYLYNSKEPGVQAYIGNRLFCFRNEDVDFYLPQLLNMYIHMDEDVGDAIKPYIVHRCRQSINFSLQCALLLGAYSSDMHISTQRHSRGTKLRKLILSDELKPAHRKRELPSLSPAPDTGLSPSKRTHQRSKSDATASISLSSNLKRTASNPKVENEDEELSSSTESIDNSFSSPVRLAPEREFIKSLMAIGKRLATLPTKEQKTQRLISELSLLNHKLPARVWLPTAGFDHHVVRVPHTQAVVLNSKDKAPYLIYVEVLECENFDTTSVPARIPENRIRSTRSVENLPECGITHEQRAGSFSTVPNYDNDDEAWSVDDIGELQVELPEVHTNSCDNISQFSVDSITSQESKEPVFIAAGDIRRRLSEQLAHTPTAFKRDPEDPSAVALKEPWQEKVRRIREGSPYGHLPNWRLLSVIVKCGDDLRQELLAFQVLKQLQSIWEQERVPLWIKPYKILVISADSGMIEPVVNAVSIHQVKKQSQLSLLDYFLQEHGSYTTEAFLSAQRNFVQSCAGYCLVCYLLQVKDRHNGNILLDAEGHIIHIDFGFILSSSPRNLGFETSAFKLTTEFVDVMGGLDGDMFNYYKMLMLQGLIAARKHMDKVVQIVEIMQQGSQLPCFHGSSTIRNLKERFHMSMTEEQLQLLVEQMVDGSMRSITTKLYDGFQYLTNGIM

[4] = biological target: Vps34 (Homo sapiens, UniProt Q8NEB9); test: Kinase Glo Luminescent Kinase Assay (Kglo), assay C; format: biochemical; conditions: read-out: Assay C VPS34 IC50
Chain of Vps34 (Q8NEB9 whole entry, species assumed): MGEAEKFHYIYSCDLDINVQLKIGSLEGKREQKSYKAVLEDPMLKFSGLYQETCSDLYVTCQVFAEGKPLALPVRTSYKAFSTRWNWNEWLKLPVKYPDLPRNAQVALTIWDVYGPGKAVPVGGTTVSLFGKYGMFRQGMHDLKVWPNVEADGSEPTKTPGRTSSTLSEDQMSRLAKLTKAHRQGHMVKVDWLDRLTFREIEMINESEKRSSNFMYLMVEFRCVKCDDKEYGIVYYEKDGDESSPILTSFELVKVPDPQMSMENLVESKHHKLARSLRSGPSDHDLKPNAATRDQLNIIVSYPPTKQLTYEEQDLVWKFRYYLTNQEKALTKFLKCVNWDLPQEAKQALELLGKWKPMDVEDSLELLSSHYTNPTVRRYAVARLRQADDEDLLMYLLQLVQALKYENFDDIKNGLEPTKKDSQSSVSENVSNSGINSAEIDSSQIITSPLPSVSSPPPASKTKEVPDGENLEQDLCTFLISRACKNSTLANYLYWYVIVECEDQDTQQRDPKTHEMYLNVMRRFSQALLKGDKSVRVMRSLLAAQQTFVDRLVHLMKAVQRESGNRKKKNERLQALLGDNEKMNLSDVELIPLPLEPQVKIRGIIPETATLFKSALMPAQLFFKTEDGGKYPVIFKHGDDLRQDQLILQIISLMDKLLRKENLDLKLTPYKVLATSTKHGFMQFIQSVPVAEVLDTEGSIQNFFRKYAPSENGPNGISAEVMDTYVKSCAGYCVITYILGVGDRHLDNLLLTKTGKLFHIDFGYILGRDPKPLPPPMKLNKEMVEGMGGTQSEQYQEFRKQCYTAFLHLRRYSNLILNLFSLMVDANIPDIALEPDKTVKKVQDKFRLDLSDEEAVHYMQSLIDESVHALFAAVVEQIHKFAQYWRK

[5] = biological target: T3, PI 3-kinase delta (Homo sapiens, UniProt O00329); test: TR-FRET Adapta assay, assay F; conditions: read-out: Assay F PI3Kδ IC50
Target sequence in this assay (O00329 whole entry): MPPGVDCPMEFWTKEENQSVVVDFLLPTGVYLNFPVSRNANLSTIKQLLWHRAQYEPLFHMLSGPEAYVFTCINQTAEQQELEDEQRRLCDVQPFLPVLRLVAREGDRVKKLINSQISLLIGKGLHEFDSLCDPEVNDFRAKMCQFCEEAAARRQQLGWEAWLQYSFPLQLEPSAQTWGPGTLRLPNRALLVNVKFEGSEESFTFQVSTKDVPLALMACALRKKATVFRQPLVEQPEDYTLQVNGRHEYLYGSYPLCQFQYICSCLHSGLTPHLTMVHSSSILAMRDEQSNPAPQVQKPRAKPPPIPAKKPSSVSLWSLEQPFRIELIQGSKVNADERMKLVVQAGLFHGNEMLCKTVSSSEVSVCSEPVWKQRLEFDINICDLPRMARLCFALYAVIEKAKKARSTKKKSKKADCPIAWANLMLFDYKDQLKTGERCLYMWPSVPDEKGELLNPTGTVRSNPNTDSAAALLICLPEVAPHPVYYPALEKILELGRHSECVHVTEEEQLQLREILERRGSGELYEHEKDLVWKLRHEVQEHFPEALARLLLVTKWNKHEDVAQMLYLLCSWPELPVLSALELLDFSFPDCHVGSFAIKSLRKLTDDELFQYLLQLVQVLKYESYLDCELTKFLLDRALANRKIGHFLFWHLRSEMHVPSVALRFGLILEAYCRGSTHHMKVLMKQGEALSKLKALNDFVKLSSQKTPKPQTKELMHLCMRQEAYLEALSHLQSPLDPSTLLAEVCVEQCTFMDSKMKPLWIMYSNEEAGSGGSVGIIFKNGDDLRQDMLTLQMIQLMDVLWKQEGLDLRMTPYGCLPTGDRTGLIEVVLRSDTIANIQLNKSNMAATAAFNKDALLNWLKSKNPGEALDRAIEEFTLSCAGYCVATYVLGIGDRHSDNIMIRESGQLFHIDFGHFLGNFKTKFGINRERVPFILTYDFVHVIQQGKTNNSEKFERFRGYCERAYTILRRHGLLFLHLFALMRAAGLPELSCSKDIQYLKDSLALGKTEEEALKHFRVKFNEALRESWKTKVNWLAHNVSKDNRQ
Target sequence in this assay (P27986 461-568 partner): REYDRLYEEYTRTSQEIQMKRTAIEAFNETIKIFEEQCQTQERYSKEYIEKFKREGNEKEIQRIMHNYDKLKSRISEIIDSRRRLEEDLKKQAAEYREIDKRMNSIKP

[6] = biological target: T4, PI 3-kinase alpha (Homo sapiens, UniProt P42336); test: Kinase Glo Luminescent Kinase Assay (Kglo), assay A; format: biochemical; conditions: read-out: Assay A PI3Kα IC50
[7] = biological target: T2, PI 3-kinase gamma; test: TR-FRET Adapta assay, assay E; format: biochemical; conditions: read-out: Assay E PI3Kγ IC50
[8] = biological target: mTOR (Homo sapiens, UniProt P42345); test: Lanthascreen kinase binding assay, assay G; conditions: read-out: Assay G mTOR IC50
Protocol: Lanthascreen™ Kinase Binding Assay for mTOR (G)
Binding of an inhibitor to the kinase competes for binding with the tracer, resulting in a loss of FRET.
50 nL of compound dilutions were dispensed onto white 384-well small volume polystyrene plate.

[9] = biological target: T3, PI 3-kinase delta; test: Cellular assay J1, p-Akt (S473) in Rat-1 cells, Surefire format; format: cell-based; conditions: non-asterisked data: version J1 (Surefire format), Rat-1 cells; read-out: Assay J PI3Kδ IC50
Target sequence in this assay (O00329 whole entry): as the sequence (O00329 whole entry) above
Target sequence in this assay (Q63787 whole entry partner): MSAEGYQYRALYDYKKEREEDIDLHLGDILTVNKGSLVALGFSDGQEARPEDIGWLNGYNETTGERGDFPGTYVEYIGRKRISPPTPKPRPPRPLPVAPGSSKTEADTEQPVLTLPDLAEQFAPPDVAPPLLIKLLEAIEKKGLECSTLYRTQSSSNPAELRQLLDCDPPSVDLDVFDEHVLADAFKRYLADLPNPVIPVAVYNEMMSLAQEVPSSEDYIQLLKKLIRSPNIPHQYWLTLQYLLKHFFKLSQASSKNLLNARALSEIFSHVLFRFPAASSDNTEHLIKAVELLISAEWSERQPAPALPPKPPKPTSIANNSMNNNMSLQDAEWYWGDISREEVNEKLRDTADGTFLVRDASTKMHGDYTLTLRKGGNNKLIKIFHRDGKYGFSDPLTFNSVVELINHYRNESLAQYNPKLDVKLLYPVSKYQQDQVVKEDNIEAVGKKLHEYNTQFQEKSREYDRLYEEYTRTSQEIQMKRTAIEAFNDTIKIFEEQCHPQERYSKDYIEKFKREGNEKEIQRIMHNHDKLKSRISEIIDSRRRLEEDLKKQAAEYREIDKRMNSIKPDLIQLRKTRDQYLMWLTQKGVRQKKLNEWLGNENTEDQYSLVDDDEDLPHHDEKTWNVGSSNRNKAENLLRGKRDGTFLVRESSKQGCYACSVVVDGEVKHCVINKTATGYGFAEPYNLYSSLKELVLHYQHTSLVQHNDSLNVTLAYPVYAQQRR

[10] = Microsomal clearance assay (M); conditions: intrinsic clearance in rat liver microsomes
Protocol: The experiments were performed in 96-well glass plates at 37° C. on an automated Tecan EVO platform. Test compounds at a concentration of 10 mM in pure DMSO were diluted 1:1000 in water to 10 μM. […] Reactions were initiated by the addition of 150 μL of a cofactor solution containing 2 mM NADPH.

[11] = biological target: T4, PI 3-kinase alpha; test: Cellular assay H1, p-Akt (S473) in Rat-1 cells, Surefire format; format: cell-based; conditions: non-asterisked data: version H1 (Surefire format), Rat-1 cells; read-out: Assay H PI3Kα IC50
Description: Cellular Assays for PI 3-Kinase Alpha (H1), Beta (I1) and Delta (J1): Surefire Format
AlphaScreen (Amplified Luminescent Proximity Homogeneous Assay, ALPHA, Perkin Elmer) is a non-radioactive bead-based proximity assay technology to study biomolecular interactions in a homogenous microtiter plate format. The brand name SureFire denotes AlphaScreen assays that are adapted to quantify the phosphorylation of endogenous cellular proteins in cell lysates, by using matched antibody pairs, which consist of an anti-phospho-kinase and an anti-kinase antibody. The assay allows characterization of kinase signaling in cells as well as measurement of kinase inhibitor effects.
Using Rat-1 cells stably expressing myr-HA-tagged versions of the human PI3Kdelta, PI3Kalpha, or PI3Kbeta p110 catalytic subunit isoforms, the assay was developed as a two-plate protocol in a 384-well format.
For compound testing, the cells were seeded at a density of 4000 (Rat-1_PI3Kdelta), 7500 (Rat-1_PI3Kalpha), or 6200 (Rat-1_PI3Kbeta) cells in 20 μl complete growth medium into cell culture treated 384-well plates and were grown at 37° C./5% CO2/90% humidity for 24 h. Shortly before compound transfer, the complete medium was removed, 30 μl assay buffer (DMEM high glucose, 1×MEM NEAA, 10 mM HEPES, 2 mM L-glutamine, 0.1% (w/v) BSA) was added and 10 μl of the compound predilutions were transferred to the cells.

[12] = biological target: T1, PI 3-kinase beta; test: Cellular assay I1, p-Akt (S473) in Rat-1 cells, Surefire format; format: cell-based; conditions: non-asterisked data: version I1 (Surefire format), Rat-1 cells; read-out: Assay I PI3Kβ IC50

SMILES | IC50 [1] [nM] | IC50 [2] [nM] | IC50 [3] [nM] | IC50 [4] [nM] | IC50 [5] [nM] | IC50 [6] [nM] | IC50 [7] [nM] | IC50 [8] [nM] | IC50 [9] [nM] | Assay M RLM CI(int) [10] [µL/min/mg] | IC50 [11] [nM] | IC50 [12] [nM]
Cc1ccc(S(=O)(=O)NC[C@](C)(O)C(F)(F)F)cc1-c1cnc(N)c(-n2cncn2)n1 [Example 127.23] | 580 | 82 | 2900 | > 10000 | 360 | 180 | 23 | – | – | – | – | –
Cc1ccc(S(=O)(=O)N2CCC(F)(F)C2)cc1-c1cnc(N)c(-n2cncn2)n1 [Example 127.3] | 3200 | 371 | 3400 | > 10000 | > 10000 | 380 | 160 | > 10000 | – | – | – | –
Cc1ccc(S(=O)(=O)NCC2CCCCO2)cc1-c1cnc(N)c(-n2cncn2)n1 (stereo not shown) [Example 127.17] | 1200 | 392 | 7400 | > 10000 | 1100 | 890 | 38 | > 10000 | – | – | – | –
Cc1ccc(S(=O)(=O)NC[C@@H](C)O)cc1-c1cnc(N)c(-n2cncn2)n1 [Example 127.13] | 530 | 210 | 3800 | > 10000 | 1100 | 280 | 26 | 6100 | – | – | – | –
Cc1ccc(S(=O)(=O)NCC(C)(C)N2CCOCC2)cc1-c1cnc(N)c(-n2cncn2)n1 [Example 127.32] | 4600 | 1880 | > 10000 | > 10000 | 1200 | 1800 | 140 | 6700 | – | – | – | –
Cc1ccc(S(=O)(=O)NCCF)cc1-c1cnc(N)c(-n2cncn2)n1 [Example 127.28] | 5100 | 290 | 8400 | > 10000 | 3500 | 450 | 160 | > 10000 | – | – | – | –
Cc1ccc(S(=O)(=O)NCCC(C)(C)O)cc1-c1cnc(N)c(-c2cnc(C3CC3)s2)n1 [Example 107, 3-(5-Amino-6-(2-cyclopropylthiazol-5-yl)pyrazin-2-yl)-N-(3-hydroxy-3-methylbutyl)-4-methylbenzenesulfonamide] | 2090 | – | 940 | 3100 | 60 | 80 | 6 | 1390 | 960 | 119 | 790 | 1290
Cc1ccc(S(=O)(=O)N[C@H]2CCOC2)cc1-c1cnc(N)c(-n2cncn2)n1 [Example 127.21] | 1900 | 320 | > 10000 | > 10000 | 1200 | 360 | 98 | 3000 | – | – | – | –
Cc1ccc(S(=O)(=O)NCCC(C)(C)O)cc1-c1cnc(N)c(-c2cnn(CCC(C)C)c2)n1 [Example 119.26] | 3900 | – | 1790 | > 9100 | 40 | 250 | 37 | 5870 | 510 | 380 | 700 | 1800
Cc1cc(-c2nc(-c3cc(S(=O)(=O)NCCCCCO)ccc3C)cnc2N)ccn1 [Example 129.3, 3-(5-amino-6-(2-methylpyridin-4-yl)pyrazin-2-yl)-N-(5-hydroxypentyl)-4-methylbenzenesulfonamide] | 7100 | – | > 9100 | > 9100 | 340 | 490 | 16 | > 9100 | 6840 | 139 | 7600 | > 10000
Cc1ccc(S(=O)(=O)NC[C@@](C)(O)C(F)(F)F)cc1-c1cnc(N)c(-n2cncn2)n1 [Example 127.22] | 970 | 156 | 8300 | > 10000 | 500 | 270 | 40 | 3900 | – | – | – | –
Cc1ccc(S(=O)(=O)NCC(C)(C)O)cc1-c1cnc(N)c(-c2cn(C)nn2)n1 [Example 81, 3-(5-Amino-6-(1-methyl-1H-1,2,3-triazol-4-yl)pyrazin-2-yl)-N-(2-hydroxy-2-methylpropyl)-4-methylbenzenesulfonamide] | 6300 | – | 9000 | > 10000 | 2500 | 2600 | 77 | > 10000 | 4040 | 29 | > 10000 | > 10000
CCn1cc(-c2nc(-c3cc(S(=O)(=O)NCC(C)(C)O)ccc3C)cnc2N)nn1 [Example 83, 3-(5-Amino-6-(1-ethyl-1H-1,2,3-triazol-4-yl)pyrazin-2-yl)-N-(2-hydroxy-2-methylpropyl)-4-methylbenzenesulfonamide] | 5200 | – | 4300 | > 10000 | 700 | 1900 | 85 | > 10000 | 4050 | 45 | > 10000 | 8750
Cc1cc(-c2nc(-c3cc(S(=O)(=O)NCC4CCCOC4)ccc3C)cnc2N)ccn1 (stereo not shown) [Example 129.14, 3-(5-amino-6-(2-methylpyridin-4-yl)pyrazin-2-yl)-4-methyl-N-((tetrahydro-2H-pyran-3-yl)methyl)benzenesulfonamide] | 4500 | – | > 9100 | > 9100 | 480 | 210 | 59 | 5700 | 2960 | 347 | 2960 | 5150
Cc1ccc(S(=O)(=O)NCCC(C)(C)O)cc1-c1cnc(N)c(-c2cnn(CC(C)C)c2)n1 [Example 119.32] | 3220 | – | 2670 | > 9100 | 200 | 260 | 11 | 6040 | 790 | 191 | 1680 | 6040
COc1nc(-c2nc(-c3cc(S(=O)(=O)NCCC(C)(C)O)ccc3C)cnc2N)cs1 [Example 110, 3-(5-Amino-6-(2-methoxythiazol-4-yl)pyrazin-2-yl)-N-(3-hydroxy-3-methylbutyl)-4-methylbenzenesulfonamide] | 520 | – | > 10000 | > 10000 | 320 | 90 | 10 | > 10000 | 690 | 254 | 480 | 1730
